Laboratory results as given in patent US20240327412A1, “FACTOR XIIA INHIBITORS” (KALVISTA PHARMACEUTICALS LIMITED, priority 2021, published 2024).

What was measured:
[1] = biological target: FXa (Homo sapiens, UniProt P00742); assay: Related protease inhibition: FXa (fluorogenic substrate at Km); type: biochemical; details: class symbols per Table 18
Outline: (§1)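 Each human protease was incubated with substrate and test compound over a concentration range; fluorescence release was then recorded for 5 min at 25° C. Rates were normalized to uninhibited enzyme (100%) to derive IC50.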

[2] = biological target: T1, Plasma Kallikrein (Homo sapiens, UniProt P03952); assay: Related protease inhibition: Plasma Kallikrein (fluorogenic substrate at Km); type: biochemical; details: class symbols per Table 18, read-out: IC50 (human PKal)
T1 construct: FXIIa converts plasma prekallikrein (PK) to plasma kallikrein (PKa)
Outline: (§2)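 Human enzymes; fluorogenic substrate at Km for thrombin, trypsin and plasma kallikrein, but fixed at 100 μM for FXIa. Fluorescence release followed over 5 min at 25 °C, linear rate expressed as % of uninhibited activity; IC50 = inhibitor concentration giving 50% inhibition.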

[3] = biological target: T2, Human Factor XIIa (Homo sapiens, UniProt P00748); assay: Determination of FXIIa inhibition (fluorogenic substrate H-DPro-Phe-Arg-AFC, IC50 assay); type: biochemical; details: substrate at Km concentration, 25° C.; category scale; read-out: Human FXII IC50 (nm)
T2 construct: Proteolytic cleavage of FXII to heavy and light chains of FXIIa dramatically increases catalytic activity; purchased Enzyme Research Laboratories
T2 sequence (P00748 373-615 limits assumed): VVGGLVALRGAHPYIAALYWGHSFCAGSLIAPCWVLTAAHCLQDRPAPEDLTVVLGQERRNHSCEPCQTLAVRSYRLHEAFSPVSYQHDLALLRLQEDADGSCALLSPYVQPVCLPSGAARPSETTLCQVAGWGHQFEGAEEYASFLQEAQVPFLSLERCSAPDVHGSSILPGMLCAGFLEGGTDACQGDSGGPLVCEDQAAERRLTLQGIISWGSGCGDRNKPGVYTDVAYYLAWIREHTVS
T2 sequence (P00748 20-372 partner limits assumed): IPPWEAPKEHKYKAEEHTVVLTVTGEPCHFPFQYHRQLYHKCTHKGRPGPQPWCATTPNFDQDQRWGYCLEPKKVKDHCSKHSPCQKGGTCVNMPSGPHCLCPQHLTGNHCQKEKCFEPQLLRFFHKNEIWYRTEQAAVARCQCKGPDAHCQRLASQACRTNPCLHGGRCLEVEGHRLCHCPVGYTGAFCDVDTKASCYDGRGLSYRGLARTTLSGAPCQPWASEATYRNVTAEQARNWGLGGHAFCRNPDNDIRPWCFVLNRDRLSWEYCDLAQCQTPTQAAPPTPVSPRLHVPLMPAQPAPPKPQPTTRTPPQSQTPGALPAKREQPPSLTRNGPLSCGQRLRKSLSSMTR
Outline: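 Human FXIIa incubated at 25° C. with fluorogenic H-DPro-Phe-Arg-AFC at its Km concentration plus varying compound levels. Linear fluorescence increase over 5 min taken as % activity; IC50 is concentration halving uninhibited activity.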

[4] = biological target: Trypsin (Homo sapiens, UniProt P07477); assay: Related protease inhibition: Trypsin (fluorogenic substrate at Km); type: biochemical; details: class symbols per Table 18
Method: (§3) In vitro inhibition of related proteases was determined using an IC50 assay based on standard literature methods (see e.g. Shori et al., Biochem. Pharmacol., 1992, 43, 1209; Bouckaert et al., European Journal of Medicinal Chemistry 110 (2016) 181). Human serine protease enzyme Plasma Kallikrein, KLK1, FXa, Plasmin, Thrombin and Trypsin were assayed for enzymatic activity using an appropriate fluorogenic substrate at Km concentration, FXIa at fixed substrate concentration of 100 μM and various concentrations of the test compound. Protease activity was measured by monitoring the accumulation of liberated fluorescence from the substrate over 5 min at 25° C. The linear rate of fluorescence increase per minute was expressed as percentage (%) activity. IC50 values were calculated as the concentration of inhibitor giving 50% inhibition of the uninhibited enzyme activity (100%).

[5] = biological target: Thrombin (Homo sapiens, UniProt P00734); assay: Related protease inhibition: Thrombin (fluorogenic substrate at Km); type: biochemical; details: class symbols per Table 18
Outline: as §2

[6] = biological target: Plasmin (Homo sapiens, UniProt P00747); assay: Related protease inhibition: Plasmin (fluorogenic substrate at Km); type: biochemical; details: class symbols per Table 18
Method: as §3

[7] = biological target: FXIa (Homo sapiens, UniProt P03951); assay: Related protease inhibition: FXIa (fixed substrate concentration of 100 μM); type: biochemical; details: class symbols per Table 18
Method: as §3

[8] = biological target: KLK1 (Homo sapiens, UniProt P06870); assay: Related protease inhibition: KLK1 (fluorogenic substrate at Km); type: biochemical; details: class symbols per Table 18
Outline: as §1

[9] = system: patients with type I/II hereditary angioedema (HAE); details: phase 2, monthly prophylactic subcutaneous treatment; cited from earlier work
[10] = Pharmacokinetics after single intravenous and single oral dose in rats; type: in vivo; details: rat, plasma, male Sprague-Dawley rats, single iv (nominal 1 mg/kg) and single po (nominal 5 mg/kg) dose; for half-life: Phoenix WinNonlin; for bioavailability: oral bioavailability, 10% DMSO/10% Cremophor EL/80% SWFI
Method: Pharmacokinetic studies of the compounds in Table 19 were performed to assess the pharmacokinetics following a single intravenous dose and a single oral dose in male Sprague-Dawley rats. Two rats were given a single intravenous dose of 1 mL/kg of a nominal 1 mg/ml (1 mg/kg) composition of test compound in 10% DMSO/10% Cremophor EL/80% SWFI vehicle. Two rats were given a single oral dose of 5 ml/kg of a nominal 1 mg/mL (5 mg/kg) composition of test compound in 10% DMSO/10% Cremophor EL/80% SWFI vehicle.
Following intravenous dosing, blood samples were collected over a period of 12 h. Sample times were 2, 5, 15 and 30 min then 1, 2, 4, 6, and 12 h. Following oral dosing, blood samples were collected over a period of 24 h. Sample times were 5, 15 and 30 min then 1, 2, 4, 6, 8, 12 and 24 h.
Following collection, blood samples were centrifuged and the plasma fraction analysed for concentration of test compound by LCMS. Oral bioavailability and half-life calculations from these studies were obtained using Phoenix WinNonlin (v8.0) and are shown below: […]

Plasmin, sequence (P00747 581-810 limits assumed): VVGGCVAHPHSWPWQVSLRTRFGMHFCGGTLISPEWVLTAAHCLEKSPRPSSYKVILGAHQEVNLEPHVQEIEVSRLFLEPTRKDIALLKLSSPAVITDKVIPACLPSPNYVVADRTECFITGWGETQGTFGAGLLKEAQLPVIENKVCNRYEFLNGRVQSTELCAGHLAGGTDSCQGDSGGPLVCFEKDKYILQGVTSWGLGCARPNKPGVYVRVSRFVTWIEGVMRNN
Plasmin, sequence (P00747 97-580 partner limits assumed): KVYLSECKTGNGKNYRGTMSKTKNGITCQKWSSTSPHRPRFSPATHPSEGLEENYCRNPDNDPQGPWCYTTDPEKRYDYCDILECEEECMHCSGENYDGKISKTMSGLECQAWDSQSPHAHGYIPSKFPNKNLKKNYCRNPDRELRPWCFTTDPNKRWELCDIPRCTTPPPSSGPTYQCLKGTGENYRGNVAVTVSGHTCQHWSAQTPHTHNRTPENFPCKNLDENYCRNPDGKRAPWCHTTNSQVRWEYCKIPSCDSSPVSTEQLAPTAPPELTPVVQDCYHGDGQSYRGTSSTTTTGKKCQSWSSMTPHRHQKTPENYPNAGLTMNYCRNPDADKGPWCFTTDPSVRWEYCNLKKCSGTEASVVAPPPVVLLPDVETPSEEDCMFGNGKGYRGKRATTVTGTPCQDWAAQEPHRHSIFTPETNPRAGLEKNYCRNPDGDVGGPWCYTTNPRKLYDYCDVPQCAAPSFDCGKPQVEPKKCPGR
KLK1, sequence (P06870 25-262): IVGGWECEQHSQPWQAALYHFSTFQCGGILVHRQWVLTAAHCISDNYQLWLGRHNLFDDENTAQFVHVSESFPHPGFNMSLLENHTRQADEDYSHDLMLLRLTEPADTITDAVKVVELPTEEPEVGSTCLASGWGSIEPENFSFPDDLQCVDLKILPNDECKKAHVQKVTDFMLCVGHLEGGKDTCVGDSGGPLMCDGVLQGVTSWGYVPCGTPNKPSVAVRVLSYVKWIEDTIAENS
T1 sequence (P03952 391-638 limits assumed): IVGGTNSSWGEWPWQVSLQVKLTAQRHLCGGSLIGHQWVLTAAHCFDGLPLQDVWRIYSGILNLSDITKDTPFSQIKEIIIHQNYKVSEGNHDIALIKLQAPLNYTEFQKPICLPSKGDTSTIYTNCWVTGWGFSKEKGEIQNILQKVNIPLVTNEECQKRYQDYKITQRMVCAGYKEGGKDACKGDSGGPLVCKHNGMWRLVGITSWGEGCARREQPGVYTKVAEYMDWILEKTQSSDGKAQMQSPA
T1 sequence (P03952 20-390 partner limits assumed): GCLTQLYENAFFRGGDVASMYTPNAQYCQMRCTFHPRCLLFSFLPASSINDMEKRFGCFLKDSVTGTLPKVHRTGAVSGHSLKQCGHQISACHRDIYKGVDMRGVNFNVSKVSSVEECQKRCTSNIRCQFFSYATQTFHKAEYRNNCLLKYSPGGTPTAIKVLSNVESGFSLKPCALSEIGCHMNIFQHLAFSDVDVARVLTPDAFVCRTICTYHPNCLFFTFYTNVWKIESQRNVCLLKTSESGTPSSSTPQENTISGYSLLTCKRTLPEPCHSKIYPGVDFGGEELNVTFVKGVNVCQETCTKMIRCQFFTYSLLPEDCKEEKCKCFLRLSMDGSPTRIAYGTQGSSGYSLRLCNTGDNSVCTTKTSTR
FXa, sequence (P00742 235-488 limits assumed): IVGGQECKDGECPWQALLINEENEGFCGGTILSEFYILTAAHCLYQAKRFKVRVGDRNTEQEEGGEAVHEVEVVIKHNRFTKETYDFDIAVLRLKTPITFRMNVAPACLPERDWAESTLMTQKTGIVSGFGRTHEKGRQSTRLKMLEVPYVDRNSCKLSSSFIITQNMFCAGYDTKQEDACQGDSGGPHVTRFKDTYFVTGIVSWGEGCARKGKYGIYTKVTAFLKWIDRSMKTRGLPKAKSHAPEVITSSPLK
FXa, sequence (P00742 41-179 partner limits assumed): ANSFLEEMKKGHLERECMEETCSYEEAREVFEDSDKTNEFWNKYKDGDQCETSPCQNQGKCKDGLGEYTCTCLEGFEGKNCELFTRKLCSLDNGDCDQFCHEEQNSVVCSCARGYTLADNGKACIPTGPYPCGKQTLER
FXIa, sequence (P03951 388-625 limits assumed): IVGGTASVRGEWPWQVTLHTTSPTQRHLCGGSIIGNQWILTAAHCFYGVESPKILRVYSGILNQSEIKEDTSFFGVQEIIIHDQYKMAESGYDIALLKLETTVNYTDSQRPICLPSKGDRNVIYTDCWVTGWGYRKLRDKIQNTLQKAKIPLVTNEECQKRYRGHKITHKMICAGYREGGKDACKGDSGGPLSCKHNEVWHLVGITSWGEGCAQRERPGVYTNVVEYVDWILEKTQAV
FXIa, sequence (P03951 19-387 partner limits assumed): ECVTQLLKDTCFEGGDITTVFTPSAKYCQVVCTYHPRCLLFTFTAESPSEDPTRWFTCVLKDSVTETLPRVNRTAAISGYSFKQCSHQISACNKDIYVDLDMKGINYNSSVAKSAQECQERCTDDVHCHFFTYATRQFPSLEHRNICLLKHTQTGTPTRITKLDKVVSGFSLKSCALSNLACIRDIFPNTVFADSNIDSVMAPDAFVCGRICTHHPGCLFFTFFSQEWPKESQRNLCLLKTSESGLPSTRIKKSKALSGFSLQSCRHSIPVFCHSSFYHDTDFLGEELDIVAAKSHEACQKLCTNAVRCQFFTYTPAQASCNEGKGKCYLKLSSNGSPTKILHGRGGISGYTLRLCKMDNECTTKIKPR

IC50 [1] | IC50 [2] | IC50 [3] | IC50 [4] | IC50 [5] | IC50 [6] | IC50 [7] | IC50 [8] | half-life [10] | bioavailability [10] | Compound | preventing attacks [9] | tolerability [9]
10 to 40 µM | > 40 µM | 0.1 to 0.3 µM | 10 to 40 µM | 10 to 40 µM | > 40 µM | > 40 µM | 3 to 10 µM | – | – | Nc1nccc2c(NCC34CC(COC5CCn6ccnc6C5)(C3)C4)cccc12 (racemic) [Example 1002, N5-((3-(((5,6,7,8-Tetrahydroimidazo[1,2-a]pyridin-7-yl)oxy)methyl)bicyclo[1.1.1]pentan-1-yl)methyl)isoquinoline-1,5-diamine] | – | –
– | – | – | – | – | – | – | – | – | – | Garadacimab: "a monoclonal antibody inhibitory against FXIIa" | effective in preventing attacks | well tolerated
10 to 40 µM | > 40 µM | 0.1 to 0.3 µM | > 40 µM | 10 to 40 µM | > 40 µM | > 40 µM | 3 to 10 µM | 7.83 h | 30.4% | Nc1nccc2c(NCC34CC(COc5ccn6ccnc6c5)(C3)C4)cccc12 [Example 1001, N5-((3-((Imidazo[1,2-a]pyridin-7-yloxy)methyl)bicyclo[1.1.1]pentan-1-yl)methyl)isoquinoline-1,5-diamine] | – | –
10 to 40 µM | > 40 µM | 0.01 to 0.1 µM | > 40 µM | 10 to 40 µM | > 40 µM | – | 3 to 10 µM | 5.7 h | 33.5% | Nc1nccc2c(NCC34CC(COc5ccc6nccn6c5)(CO3)C4)cccc12 [Example 6602, 5-N-[[4-(Imidazo[1,2-a]pyridin-6-yloxymethyl)-2-oxabicyclo[2.1.1]hexan-1-yl]methyl]isoquinoline-1,5-diamine] | – | –
